The values that follow come from ChEMBL document CHEMBL5150076, “Discovery of Novel Orally Bioavailable Triazoles with Potent and Broad-Spectrum Antifungal Activity In Vitro and In Vivo” (J Med Chem, 2022).

By MIC is commonly meant the least concentration at which growth counts as inhibited. A higher MIC goes with weaker potency.

Common to all, as to assay type: functional
For experiment [1], the system named is Candida albicans. In words: Antifungal activity against Candida albicans SC5314 incubated for 24 hrs by microbroth dilution method. On the technique in general: Broth dilution looks for growth in wells or tubes with falling amounts of substance.
For experiment [2], the system named is Cryptococcus neoformans. In words: Antifungal activity against Cryptococcus neoformans H99 incubated for 72 hrs by microbroth dilution method.
The subject of experiment [3] is Aspergillus fumigatus. The experiment in a line: Antifungal activity against Aspergillus fumigatus 7544 incubated for 48 hrs by microbroth dilution method.
For experiment [4], the system named is Candida parapsilosis. In words: Antifungal activity against Candida parapsilosis 22019. Conditions: Lodderomyces parapsilosis.
Experiment [5] concerns Nakaseomyces glabratus. In words: Antifungal activity against Candida glabrata 537.
Experiment [6] relates to Cryptococcus neoformans. In words: Antifungal activity against Cryptococcus neoformans 32605.
The subject of experiment [7] is Nannizzia gypsea. The experiment in a line: Antifungal activity against Microsporum gypseum.
For experiment [8], the system named is Trichophyton rubrum. The experiment in a line: Antifungal activity against Trichophyton rubrum cmccftla.
Experiment [9] deals with Candida albicans. In words: Antifungal activity against Candida albicans Y0109.

Converted amounts (≈) assume the structure as drawn.

On to `C[C@@H](c1cn(-c2ccc(C#N)cc2)nn1)[C@](O)(Cn1cncn1)c1ccc(F)cc1F`, for which the minimal inhibitory concentration (MIC) in experiment [1] is 0.125 mg/L (≈ 0.297 µM); in [2], 0.25 mg/L (≈ 0.593 µM); in experiment [3], greater than 64 mg/L.
The like results for `C[C@@H](c1cn(-c2c(F)cccc2F)nn1)[C@](O)(Cn1cncn1)c1ccc(F)cc1F` were, in that order, 0.125 mg/L (≈ 0.289 µM), 0.125 mg/L (≈ 0.289 µM) and 2 mg/L (≈ 4.63 µM).
For the molecule `C[C@@H](c1cn(-c2ccc(OCc3ccc(C(C)(C)C)cc3)cc2)nn1)[C@](O)(Cn1cncn1)c1ccc(F)cc1F`, the results for the MIC in [1], in [2] and in experiment [3] were 0.125 mg/L (≈ 0.224 µM), 0.5 mg/L (≈ 0.895 µM) and greater than 64 mg/L, respectively.
The like results for `C[C@@H](c1cn(-c2ccc(OCC(F)(F)C(F)F)cc2)nn1)[C@](O)(Cn1cncn1)c1ccc(F)cc1F` were, in that order, 0.0156 mg/L (≈ 0.0296 µM), 0.0625 mg/L (≈ 0.119 µM) and 2 mg/L (≈ 3.8 µM).
The like results for `C[C@@H](c1cn(-c2ccc(C(F)(F)F)cc2)nn1)[C@](O)(Cn1cncn1)c1ccc(F)cc1F` were, in that order, 0.0625 mg/L (≈ 0.135 µM), 0.0625 mg/L (≈ 0.135 µM) and 16 mg/L (≈ 34.5 µM).
For the molecule `C[C@@H](c1cn(-c2cc(F)c(F)c(F)c2)nn1)[C@](O)(Cn1cncn1)c1ccc(F)cc1F`, the figures for the minimum inhibitory concentration (MIC) in experiment [1], in experiment [2] and in [3] were 0.125 mg/L (≈ 0.278 µM), 0.125 mg/L (≈ 0.278 µM) and 2 mg/L (≈ 4.44 µM), respectively.
`C[C@@H](c1cn(-c2cccnc2)nn1)[C@](O)(Cn1cncn1)c1ccc(F)cc1F`: the figures for the minimum inhibitory concentration (MIC) in experiment [1], in experiment [2] and in experiment [3] were 0.25 mg/L (≈ 0.629 µM), 2 mg/L (≈ 5.03 µM) and 32 mg/L (≈ 80.5 µM), respectively.
The matching figures for `C[C@@H](c1cn(-c2cncnc2)nn1)[C@](O)(Cn1cncn1)c1ccc(F)cc1F`: 0.5 mg/L (≈ 1.26 µM), 4 mg/L (≈ 10 µM) and 64 mg/L (≈ 161 µM).
The like results for `C[C@@H](c1cn(-c2ccc(Cl)cc2F)nn1)[C@](O)(Cn1cncn1)c1cc(F)ccc1F` were, in that order, 0.0625 mg/L (≈ 0.139 µM), 0.0625 mg/L (≈ 0.139 µM) and 4 mg/L (≈ 8.91 µM).
Take `C[C@@H](c1cn(-c2ccc(F)cc2F)nn1)[C@](O)(Cn1cncn1)c1ccc(F)cc1F`: the MIC was found to be 0.0313 mg/L (≈ 0.0724 µM) in experiment [4]; 0.0625 mg/L (≈ 0.145 µM) in experiment [1]; 0.0625 mg/L (≈ 0.145 µM) in experiment [2]; 0.0313 mg/L (≈ 0.0724 µM) in experiment [5]; 0.0313 mg/L (≈ 0.0724 µM) in experiment [6]; 2 mg/L (≈ 4.63 µM) in experiment [3]. Also, the minimum inhibitory concentration (MIC) was found to be 2 mg/L (≈ 4.63 µM) in experiment [7], 0.125 mg/L (≈ 0.289 µM) in [8] and 0.0625 mg/L (≈ 0.145 µM) in [9].
With `C[C@@H](c1cn(-c2ccc(OCc3ccc(C(F)(F)F)cc3)cc2)nn1)[C@](O)(Cn1cncn1)c1ccc(F)cc1F`, the values for the MIC in experiment [1], in experiment [2] and in [3] were 1 mg/L (≈ 1.75 µM), 0.125 mg/L (≈ 0.219 µM) and 16 mg/L (≈ 28 µM), respectively.
The like results for `C[C@@H](c1cn(-c2ccc(OC(F)(F)F)cc2)nn1)[C@](O)(Cn1cncn1)c1cc(F)ccc1F` were, in that order, 0.0625 mg/L (≈ 0.13 µM), 0.125 mg/L (≈ 0.26 µM) and 32 mg/L (≈ 66.6 µM).
Consider `C[C@@H](c1cn(-c2ccc(OCc3ccc(C#N)cc3)cc2)nn1)[C@](O)(Cn1cncn1)c1ccc(F)cc1F`, for which the MIC in [1] is 0.125 mg/L (≈ 0.237 µM); in experiment [3], greater than 64 mg/L.
Turning to `C[C@@H](c1cn(-c2ccc(Cl)cc2)nn1)[C@](O)(Cn1cncn1)c1cc(F)ccc1F`, the minimal inhibitory concentration (MIC) stood at 0.125 mg/L (≈ 0.29 µM) in experiment [1], 0.125 mg/L (≈ 0.29 µM) in [2] and 32 mg/L (≈ 74.3 µM) in [3].
On to `C[C@@H](c1cn(-c2ccc(F)cc2)nn1)[C@](O)(Cn1cncn1)c1ccc(F)cc1F`, for which the MIC in experiment [1] was determined as 0.0625 mg/L (≈ 0.151 µM); in experiment [2], 0.0625 mg/L (≈ 0.151 µM); in experiment [3] it was 4 mg/L (≈ 9.65 µM).
As for `C[C@@H](c1cn(-c2ccc(OCc3ccc(Cl)cc3)cc2)nn1)[C@](O)(Cn1cncn1)c1ccc(F)cc1F`, the MIC was 0.5 mg/L (≈ 0.931 µM) in experiment [1], 0.0625 mg/L (≈ 0.116 µM) in experiment [2] and greater than 64 mg/L in experiment [3].
The like results for `C[C@@H](c1cn(-c2ccc(Cl)cc2)nn1)[C@](O)(Cn1cncn1)c1ccc(F)cc1F` were, in that order, 0.0625 mg/L (≈ 0.145 µM), 0.0156 mg/L (≈ 0.0362 µM) and 4 mg/L (≈ 9.28 µM).
The matching figures for `C[C@@H](c1cn(-c2ccc(OCc3ccc(F)cc3)cc2)nn1)[C@](O)(Cn1cncn1)c1ccc(F)cc1F`: 0.125 mg/L (≈ 0.24 µM), 0.0625 mg/L (≈ 0.12 µM) and greater than 64 mg/L.
The like results for `CCCCOc1ccc(-n2cc([C@H](C)[C@](O)(Cn3cncn3)c3ccc(F)cc3F)nn2)cc1` were, in that order, 0.0156 mg/L (≈ 0.0333 µM), 0.0625 mg/L (≈ 0.133 µM) and 2 mg/L (≈ 4.27 µM).
As for `C[C@@H](c1cn(-c2ccc(OCc3ccc(OC(F)(F)F)cc3)cc2)nn1)[C@](O)(Cn1cncn1)c1ccc(F)cc1F`, the MIC in experiment [1] was determined as 0.25 mg/L (≈ 0.426 µM); in experiment [2], 0.0625 mg/L (≈ 0.107 µM); in experiment [3] it was 8 mg/L (≈ 13.6 µM).
